Results on two compounds are retold here after BindingDB's records for doi:10.1021/jm050267e (Johnson & Johnson Pharmaceutical, 2005).

Assay in all cases: Kinase Inhibition Assay
The target in assay [1] is Cyclin-A2/Cyclin-dependent kinase 2 (Homo sapiens, UniProt P24941). As for the experimental part:
(§1) The enzyme was assayed with a biotinylated peptide substrate and test compounds in the presence of 10 uM ATP/[gamma-33P]ATP in a streptavidin coated FlashPlate (Perkin-Elmer, Boston, MA). Inhibition of the enzymatic activity due to the compound was measured by observing a reduced amount of 33P-gamma-ATP incorporated into the immobilized peptide relative to untreated controls. Linear regression analysis of the percent of inhibition by the test compound was used to calculate IC50 values.

Assay [2] concerns the target Cyclin-dependent kinase/G2/mitotic-specific cyclin- 1 (Homo sapiens, UniProt P06493). To be noted: pH 8; 30 °C. The protocol:
as §1

The target of assay [3] is Cyclin-dependent kinase 4/G1/S-specific cyclin-D1 (Mus musculus, UniProt P30285). The protocol:
as §1

In assay [4] the target is Vascular endothelial growth factor receptor 2 (Rattus norvegicus, UniProt O08775). As for the experimental part: as §1
Sequence of Vascular endothelial growth factor receptor 2 (O08775 whole entry): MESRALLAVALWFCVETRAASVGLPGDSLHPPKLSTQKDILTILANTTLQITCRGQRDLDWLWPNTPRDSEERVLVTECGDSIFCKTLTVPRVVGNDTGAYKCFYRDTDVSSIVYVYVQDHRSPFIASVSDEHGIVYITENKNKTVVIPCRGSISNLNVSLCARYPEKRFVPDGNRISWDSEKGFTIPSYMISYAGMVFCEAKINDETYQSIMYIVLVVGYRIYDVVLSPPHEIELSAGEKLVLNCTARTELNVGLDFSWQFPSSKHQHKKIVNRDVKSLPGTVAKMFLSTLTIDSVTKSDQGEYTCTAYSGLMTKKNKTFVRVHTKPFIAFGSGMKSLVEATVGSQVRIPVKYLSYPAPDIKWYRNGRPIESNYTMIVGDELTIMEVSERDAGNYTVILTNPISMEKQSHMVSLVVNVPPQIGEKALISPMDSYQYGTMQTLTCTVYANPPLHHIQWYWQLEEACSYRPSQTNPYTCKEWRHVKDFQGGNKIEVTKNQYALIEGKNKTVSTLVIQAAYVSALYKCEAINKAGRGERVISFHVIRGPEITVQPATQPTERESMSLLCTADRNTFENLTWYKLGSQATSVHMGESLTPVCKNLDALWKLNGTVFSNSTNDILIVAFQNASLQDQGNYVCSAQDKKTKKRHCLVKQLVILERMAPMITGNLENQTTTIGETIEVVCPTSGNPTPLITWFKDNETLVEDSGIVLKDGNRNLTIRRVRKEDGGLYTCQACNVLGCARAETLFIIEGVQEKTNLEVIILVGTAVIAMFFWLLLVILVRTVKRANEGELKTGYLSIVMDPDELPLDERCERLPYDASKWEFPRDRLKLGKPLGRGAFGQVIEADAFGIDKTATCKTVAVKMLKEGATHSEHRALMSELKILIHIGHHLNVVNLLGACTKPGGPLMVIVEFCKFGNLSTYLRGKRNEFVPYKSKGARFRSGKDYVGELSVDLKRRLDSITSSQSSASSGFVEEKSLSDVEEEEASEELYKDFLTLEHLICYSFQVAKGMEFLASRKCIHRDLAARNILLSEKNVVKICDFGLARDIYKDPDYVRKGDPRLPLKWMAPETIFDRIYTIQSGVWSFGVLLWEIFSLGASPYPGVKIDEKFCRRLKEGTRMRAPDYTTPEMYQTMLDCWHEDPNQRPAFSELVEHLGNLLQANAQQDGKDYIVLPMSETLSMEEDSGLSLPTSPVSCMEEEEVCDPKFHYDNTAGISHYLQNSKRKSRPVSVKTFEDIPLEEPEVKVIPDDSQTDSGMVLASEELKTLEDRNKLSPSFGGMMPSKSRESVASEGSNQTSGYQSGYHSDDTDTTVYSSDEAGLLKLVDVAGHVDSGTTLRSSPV

As usually defined, the IC50 is the point on the concentration scale where inhibition reaches its midpoint.

Sequence of Cyclin-dependent kinase/G2/mitotic-specific cyclin- 1 (P06493 whole entry): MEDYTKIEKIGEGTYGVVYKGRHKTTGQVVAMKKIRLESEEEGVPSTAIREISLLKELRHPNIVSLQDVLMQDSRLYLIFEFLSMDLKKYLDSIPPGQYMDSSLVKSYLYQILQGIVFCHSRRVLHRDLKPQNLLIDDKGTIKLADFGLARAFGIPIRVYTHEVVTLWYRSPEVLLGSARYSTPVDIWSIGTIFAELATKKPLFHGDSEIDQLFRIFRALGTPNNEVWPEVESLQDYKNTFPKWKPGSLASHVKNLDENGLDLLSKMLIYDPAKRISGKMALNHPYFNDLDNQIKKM
Sequence of Cyclin-dependent kinase/G2/mitotic-specific cyclin- 1 (P14635 whole entry, further chain): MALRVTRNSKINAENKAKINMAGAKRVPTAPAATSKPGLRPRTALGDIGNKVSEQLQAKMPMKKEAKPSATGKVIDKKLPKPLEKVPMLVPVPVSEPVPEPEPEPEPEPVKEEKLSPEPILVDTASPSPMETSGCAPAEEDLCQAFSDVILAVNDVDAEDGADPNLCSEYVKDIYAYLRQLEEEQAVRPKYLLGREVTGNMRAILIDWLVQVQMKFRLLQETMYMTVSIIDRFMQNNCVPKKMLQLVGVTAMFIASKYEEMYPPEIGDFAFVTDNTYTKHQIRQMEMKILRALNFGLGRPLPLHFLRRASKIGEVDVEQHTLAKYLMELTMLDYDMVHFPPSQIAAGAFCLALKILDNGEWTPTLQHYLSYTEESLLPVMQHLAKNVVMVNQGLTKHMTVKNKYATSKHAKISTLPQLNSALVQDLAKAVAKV
Sequence of Cyclin-dependent kinase 4/G1/S-specific cyclin-D1 (P25322 whole entry): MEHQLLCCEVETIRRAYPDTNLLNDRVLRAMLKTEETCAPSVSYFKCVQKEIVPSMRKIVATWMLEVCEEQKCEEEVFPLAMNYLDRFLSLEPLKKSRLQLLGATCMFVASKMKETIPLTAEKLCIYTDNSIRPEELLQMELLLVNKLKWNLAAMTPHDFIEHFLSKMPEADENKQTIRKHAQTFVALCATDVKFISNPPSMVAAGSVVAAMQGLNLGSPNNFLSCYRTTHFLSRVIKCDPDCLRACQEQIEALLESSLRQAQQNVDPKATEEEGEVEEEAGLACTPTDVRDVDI
Sequence of Cyclin-dependent kinase 4/G1/S-specific cyclin-D1 (P30285 whole entry): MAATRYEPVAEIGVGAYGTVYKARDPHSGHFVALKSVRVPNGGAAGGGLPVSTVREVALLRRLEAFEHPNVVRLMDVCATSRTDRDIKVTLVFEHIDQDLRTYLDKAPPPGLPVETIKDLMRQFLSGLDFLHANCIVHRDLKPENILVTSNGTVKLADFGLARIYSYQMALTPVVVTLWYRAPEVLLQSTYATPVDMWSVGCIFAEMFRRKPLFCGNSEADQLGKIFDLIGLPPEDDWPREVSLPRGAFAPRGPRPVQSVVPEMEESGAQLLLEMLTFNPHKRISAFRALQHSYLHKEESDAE

On to `Cc1ccc(F)c(C(=O)n2nc(Nc3ccc(S(N)(=O)=O)cc3)nc2N)c1F` [4-({5-amino-1-[(2,6-difluoro-3-methylphenyl)carbonyl]-1H-1,2,4-triazol-3-yl}amino)benzene-1-sulfonamide], for which the IC50 came out at 0.3 nM in assay [1], 8 nM in assay [2], 190 nM in assay [3] and 510 nM in assay [4].

Consider `Nc1nc(Nc2ccc(S(N)(=O)=O)cc2)nn1C(=O)c1c(F)ccc(F)c1F` [4-[[5-Amino-1-(2,3,6-trifluorobenzoyl)-1H-1,2,4-triazol-3-yl]amino]-benzenesulfonamide], for which it took 3.2 nM to reach half-maximal inhibition in assay [2] (IC50).
